This is an account of results in ChEMBL document CHEMBL1138027, “Dimethoxybenzo[i]phenanthridine-12-carboxylic acid derivatives and 6H-dibenzo[c,h][2,6]naphthyridin-5-ones with potent topoisomerase I-targeting activity and cytotoxicity” (Bioorg Med Chem Lett, 2004).

Molecules are shown by their SMILES.

One assay relates to P388. The experiment in a line: Concentration required to inhibit cell proliferation in P388 tumor cell line. In kind it is functional, cell-based. The following applies: Mus musculus.
Turning to `CCN(CC)CCn1c(=O)c2c3cc4c(cc3ncc2c2cc(OC)c(OC)cc21)OCO4`, 3 nM corresponded to half-maximal inhibition (IC50).
Take `CC[C@@]1(O)C(=O)OCc2c1cc1n(c2=O)Cc2cc3ccccc3nc2-1` [CAMPTOTHECIN]: the IC50 worked out at 10 nM.
Compound `COc1cc2c3cnc4cc5c(cc4c3c(=O)n(CCN3CCCCC3)c2cc1OC)OCO5` had an IC50 of 3 nM.
In the case of `COc1cc2c3cnc4cc5c(cc4c3c(=O)n(CCCN(C)C)c2cc1OC)OCO5`, the half-maximal inhibitory concentration (IC50) turned out to be 3 nM.
Regarding `CC[C@@]1(O)C(=O)OCc2c1cc1n(c2=O)Cc2cc3c(CN(C)C)c(O)ccc3nc2-1` [TOPOTECAN], the IC50 was 40 nM.
`COc1cc2c(=O)n(CCN(C)C)c3c4cc5c(cc4ncc3c2cc1OC)OCO5` showed an IC50 of 1 nM.

The next assay has as its system KB. The experiment in a line: Concentration required to inhibit cell proliferation in KBV-1 tumor cell line; overexpress MDR1. The assay is classed as functional, cell-based. The following applies: Homo sapiens.
For the compound `CCN(CC)CCn1c(=O)c2c3cc4c(cc3ncc2c2cc(OC)c(OC)cc21)OCO4`, the half-inhibitory concentration (IC50) came out at 10 nM.
On the same count and under the same terms, the result for `CC[C@@]1(O)C(=O)OCc2c1cc1n(c2=O)Cc2cc3ccccc3nc2-1` [CAMPTOTHECIN] reads 20 nM; that for `COc1cc2c3cnc4cc5c(cc4c3c(=O)n(CCN3CCCCC3)c2cc1OC)OCO5`, 6 nM.
Same read-out and setting: the result for `COc1cc2c3cnc4cc5c(cc4c3c(=O)n(CCCN(C)C)c2cc1OC)OCO5` reads 7 nM; that for `CC[C@@]1(O)C(=O)OCc2c1cc1n(c2=O)Cc2cc3c(CN(C)C)c(O)ccc3nc2-1` [TOPOTECAN], 440 nM; that for `COc1cc2c(=O)n(CCN(C)C)c3c4cc5c(cc4ncc3c2cc1OC)OCO5`, 5 nM.

A further assay relates to RPMI 8402. The experiment in a line: Concentration required to inhibit cell proliferation in CPT-K5 tumor cell line; camptothecin resistant. The assay is classed as functional, cell-based. The following applies: Homo sapiens.
Compound `CCN(CC)CCn1c(=O)c2c3cc4c(cc3ncc2c2cc(OC)c(OC)cc21)OCO4` gave an IC50 of 900 nM.
Consider `CC[C@@]1(O)C(=O)OCc2c1cc1n(c2=O)Cc2cc3ccccc3nc2-1` [CAMPTOTHECIN], for which the half-maximal inhibitory concentration (IC50) was greater than 10000 nM.
In turn, `COc1cc2c3cnc4cc5c(cc4c3c(=O)n(CCN3CCCCC3)c2cc1OC)OCO5` registered an IC50 of 1500 nM.
Turning to `COc1cc2c3cnc4cc5c(cc4c3c(=O)n(CCCN(C)C)c2cc1OC)OCO5`, the concentration for half-maximal inhibition (IC50) came to 200 nM.
As to `CC[C@@]1(O)C(=O)OCc2c1cc1n(c2=O)Cc2cc3c(CN(C)C)c(O)ccc3nc2-1` [TOPOTECAN], the concentration for half-maximal inhibition (IC50) is greater than 10000 nM.
`COc1cc2c(=O)n(CCN(C)C)c3c4cc5c(cc4ncc3c2cc1OC)OCO5` registered an IC50 of 900 nM.

In the next assay the test system is RPMI 8402. The assay is described as follows: Concentration required to inhibit cell proliferation in […] tumor cell line. The following applies: Homo sapiens. The assay is classed as functional, cell-based.
The compound `CCN(CC)CCn1c(=O)c2c3cc4c(cc3ncc2c2cc(OC)c(OC)cc21)OCO4` gave a 50% inhibitory concentration (IC50) of 3 nM.
The compound `CC[C@@]1(O)C(=O)OCc2c1cc1n(c2=O)Cc2cc3ccccc3nc2-1` [CAMPTOTHECIN] gave a 50% inhibitory concentration (IC50) of 6 nM.
On to `COc1cc2c3cnc4cc5c(cc4c3c(=O)n(CCN3CCCCC3)c2cc1OC)OCO5`, for which 1 nM corresponded to half-maximal inhibition (IC50).
For `COc1cc2c3cnc4cc5c(cc4c3c(=O)n(CCCN(C)C)c2cc1OC)OCO5`, 0.5 nM corresponded to half-maximal inhibition (IC50).
On the same count and under the same terms, to `CC[C@@]1(O)C(=O)OCc2c1cc1n(c2=O)Cc2cc3c(CN(C)C)c(O)ccc3nc2-1` [TOPOTECAN] belongs 20 nM.

Another assay relates to KB 3-1. The experiment in a line: Concentration required to inhibit cell proliferation in KBH5.0 tumor cell line; overexpress BCRP. The assay is classed as functional, cell-based. The following applies: Homo sapiens.
The compound `CCN(CC)CCn1c(=O)c2c3cc4c(cc3ncc2c2cc(OC)c(OC)cc21)OCO4` came in with a 50% inhibitory concentration (IC50) of 5 nM.
Turning to `CC[C@@]1(O)C(=O)OCc2c1cc1n(c2=O)Cc2cc3ccccc3nc2-1` [CAMPTOTHECIN], the half-inhibitory concentration (IC50) turned out to be 20 nM.
Compound `COc1cc2c3cnc4cc5c(cc4c3c(=O)n(CCN3CCCCC3)c2cc1OC)OCO5` returned an IC50 of 7 nM.
On the same count and under the same terms, the result for `COc1cc2c3cnc4cc5c(cc4c3c(=O)n(CCCN(C)C)c2cc1OC)OCO5` reads 4 nM; that for `CC[C@@]1(O)C(=O)OCc2c1cc1n(c2=O)Cc2cc3c(CN(C)C)c(O)ccc3nc2-1` [TOPOTECAN], 440 nM; that for `COc1cc2c(=O)n(CCN(C)C)c3c4cc5c(cc4ncc3c2cc1OC)OCO5`, 6 nM.

In the next assay the test system is KB 3-1. The experiment in a line: Concentration required to inhibit cell proliferation in KB3-1 tumor cell line. The following applies: Homo sapiens. The assay is classed as functional, cell-based.
`CCN(CC)CCn1c(=O)c2c3cc4c(cc3ncc2c2cc(OC)c(OC)cc21)OCO4` displayed an IC50 of 3 nM.
With `CC[C@@]1(O)C(=O)OCc2c1cc1n(c2=O)Cc2cc3ccccc3nc2-1` [CAMPTOTHECIN], the concentration for half-maximal inhibition (IC50) came to 10 nM.
Same read-out and setting: the result for `COc1cc2c3cnc4cc5c(cc4c3c(=O)n(CCN3CCCCC3)c2cc1OC)OCO5` reads 6 nM; that for `COc1cc2c3cnc4cc5c(cc4c3c(=O)n(CCCN(C)C)c2cc1OC)OCO5`, 3 nM; that for `CC[C@@]1(O)C(=O)OCc2c1cc1n(c2=O)Cc2cc3c(CN(C)C)c(O)ccc3nc2-1` [TOPOTECAN], 40 nM.
In turn, `COc1cc2c(=O)n(CCN(C)C)c3c4cc5c(cc4ncc3c2cc1OC)OCO5` came in with an IC50 of 5 nM.

The next assay addresses T1, DNA topoisomerase 1 (Homo sapiens) (UniProt P11387).
T1 sequence (whole entry): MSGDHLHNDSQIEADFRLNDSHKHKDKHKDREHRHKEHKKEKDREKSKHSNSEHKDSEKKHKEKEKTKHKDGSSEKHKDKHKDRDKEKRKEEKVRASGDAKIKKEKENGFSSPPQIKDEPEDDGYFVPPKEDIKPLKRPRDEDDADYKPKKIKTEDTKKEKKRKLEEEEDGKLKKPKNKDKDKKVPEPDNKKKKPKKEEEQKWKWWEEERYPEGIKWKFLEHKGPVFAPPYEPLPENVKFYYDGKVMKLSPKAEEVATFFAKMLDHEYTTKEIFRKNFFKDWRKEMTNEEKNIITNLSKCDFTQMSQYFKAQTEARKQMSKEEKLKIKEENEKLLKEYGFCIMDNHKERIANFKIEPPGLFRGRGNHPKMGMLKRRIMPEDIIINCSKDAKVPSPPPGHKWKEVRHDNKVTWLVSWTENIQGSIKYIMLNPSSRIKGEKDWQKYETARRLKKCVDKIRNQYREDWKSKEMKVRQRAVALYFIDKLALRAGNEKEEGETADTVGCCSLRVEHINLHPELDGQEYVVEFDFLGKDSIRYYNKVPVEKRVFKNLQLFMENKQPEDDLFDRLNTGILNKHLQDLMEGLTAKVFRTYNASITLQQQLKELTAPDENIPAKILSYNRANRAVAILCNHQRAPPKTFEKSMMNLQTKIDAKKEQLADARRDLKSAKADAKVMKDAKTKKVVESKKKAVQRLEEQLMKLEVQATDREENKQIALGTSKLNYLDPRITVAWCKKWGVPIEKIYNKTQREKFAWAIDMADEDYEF
The experiment in a line: Relative effective concentration to cleave plasmid DNA with human topoisomerase I; compared to camptothecin=1.
Conditions: not given
For the compound `CCN(CC)CCn1c(=O)c2c3cc4c(cc3ncc2c2cc(OC)c(OC)cc21)OCO4`, the REC came out at 0.7.
`CC[C@@]1(O)C(=O)OCc2c1cc1n(c2=O)Cc2cc3ccccc3nc2-1` [CAMPTOTHECIN] yielded an REC of 1.
Still for that read-out and setting: to `COc1cc2c3cnc4cc5c(cc4c3c(=O)n(CCN3CCCCC3)c2cc1OC)OCO5` belongs 0.1.
`COc1cc2c3cnc4cc5c(cc4c3c(=O)n(CCCN(C)C)c2cc1OC)OCO5` returned an REC of 3.
`CC[C@@]1(O)C(=O)OCc2c1cc1n(c2=O)Cc2cc3c(CN(C)C)c(O)ccc3nc2-1` [TOPOTECAN]: the REC is 5.

Test system in the next assay: not listed separately
The experiment in a line: Concentration required to inhibit cell proliferation in P388/CPT-45 tumor cell line; camptothecin resistant. The following applies: Mus musculus, P388CPT45. The assay is classed as functional.
As for `CCN(CC)CCn1c(=O)c2c3cc4c(cc3ncc2c2cc(OC)c(OC)cc21)OCO4`, the IC50 is 30 nM.
In turn, `CC[C@@]1(O)C(=O)OCc2c1cc1n(c2=O)Cc2cc3ccccc3nc2-1` [CAMPTOTHECIN] showed a half-maximal inhibitory concentration (IC50) greater than 10000 nM.
Consider `COc1cc2c3cnc4cc5c(cc4c3c(=O)n(CCN3CCCCC3)c2cc1OC)OCO5`, for which the IC50 stood at 230 nM.
`COc1cc2c3cnc4cc5c(cc4c3c(=O)n(CCCN(C)C)c2cc1OC)OCO5` showed an IC50 of 20 nM.
The compound `CC[C@@]1(O)C(=O)OCc2c1cc1n(c2=O)Cc2cc3c(CN(C)C)c(O)ccc3nc2-1` [TOPOTECAN] yielded an IC50 greater than 10000 nM.
Still for that read-out and setting: the result for `COc1cc2c(=O)n(CCN(C)C)c3c4cc5c(cc4ncc3c2cc1OC)OCO5` reads 230 nM.
